The text below walks through data of BindingDB's records for doi:10.7270/Q2NV9GNV (Vanderbilt Screening Center for GPCRs, Ion Channels and …, 2009).

Structures are written as SMILES.

The experiment deals with T1, Muscarinic acetylcholine receptor M4 (Rattus norvegicus, UniProt P08485).
T1 sequence (P08485 whole entry): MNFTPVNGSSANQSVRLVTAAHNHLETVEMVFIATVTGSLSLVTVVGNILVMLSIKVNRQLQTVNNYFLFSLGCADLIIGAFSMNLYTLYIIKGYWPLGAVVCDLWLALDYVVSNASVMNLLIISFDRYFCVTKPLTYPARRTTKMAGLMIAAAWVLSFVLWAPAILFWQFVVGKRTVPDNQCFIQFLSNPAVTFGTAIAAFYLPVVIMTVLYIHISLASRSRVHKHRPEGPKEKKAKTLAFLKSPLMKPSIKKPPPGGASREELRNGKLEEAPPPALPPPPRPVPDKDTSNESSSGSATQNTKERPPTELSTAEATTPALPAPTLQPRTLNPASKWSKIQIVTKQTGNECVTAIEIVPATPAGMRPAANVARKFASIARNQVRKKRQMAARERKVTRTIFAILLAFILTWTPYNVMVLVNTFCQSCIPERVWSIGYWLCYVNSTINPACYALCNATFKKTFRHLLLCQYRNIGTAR
Briefly: effects on NMS binding at M4, late-stage follow-up, mechanism study for M4 PAM project, biochemical, NMS competition, rat M4 (AID 1939). To be noted: inactive by the depositor's call.

`Cc1cc(C)c2c(N)c(C(=O)NCc3ccc4c(c3)OCO4)sc2n1` [3-amino-4,6-dimethyl-N-piperonyl-thieno[2,3-b]pyridine-2-carboxamide] gave a Ki of 46.8 nM.
